“And” between values parts separate entries of the source, which are not always exact repeats. Equal values may be shown once. The source made the active and inactive calls. The rule behind the calls is not given here.
What was measured:
[1] = Cytotoxicity against HEK-Blue hTLR4 cells incubated for 24 hrs by CCK8 assay; type: toxicity, cell-based; settings: human
[2] = target: T1, Toll-like receptor 4 (Homo sapiens, UniProt O00206); assay: Inhibition of human TLR4 in LPS-stimulated HEK-Blue hTLR4 cells assessed as reduction in SEAP activity incubated for 24 hrs by microplate reader assay; type: cell-based
T1 sequence (O00206 whole entry): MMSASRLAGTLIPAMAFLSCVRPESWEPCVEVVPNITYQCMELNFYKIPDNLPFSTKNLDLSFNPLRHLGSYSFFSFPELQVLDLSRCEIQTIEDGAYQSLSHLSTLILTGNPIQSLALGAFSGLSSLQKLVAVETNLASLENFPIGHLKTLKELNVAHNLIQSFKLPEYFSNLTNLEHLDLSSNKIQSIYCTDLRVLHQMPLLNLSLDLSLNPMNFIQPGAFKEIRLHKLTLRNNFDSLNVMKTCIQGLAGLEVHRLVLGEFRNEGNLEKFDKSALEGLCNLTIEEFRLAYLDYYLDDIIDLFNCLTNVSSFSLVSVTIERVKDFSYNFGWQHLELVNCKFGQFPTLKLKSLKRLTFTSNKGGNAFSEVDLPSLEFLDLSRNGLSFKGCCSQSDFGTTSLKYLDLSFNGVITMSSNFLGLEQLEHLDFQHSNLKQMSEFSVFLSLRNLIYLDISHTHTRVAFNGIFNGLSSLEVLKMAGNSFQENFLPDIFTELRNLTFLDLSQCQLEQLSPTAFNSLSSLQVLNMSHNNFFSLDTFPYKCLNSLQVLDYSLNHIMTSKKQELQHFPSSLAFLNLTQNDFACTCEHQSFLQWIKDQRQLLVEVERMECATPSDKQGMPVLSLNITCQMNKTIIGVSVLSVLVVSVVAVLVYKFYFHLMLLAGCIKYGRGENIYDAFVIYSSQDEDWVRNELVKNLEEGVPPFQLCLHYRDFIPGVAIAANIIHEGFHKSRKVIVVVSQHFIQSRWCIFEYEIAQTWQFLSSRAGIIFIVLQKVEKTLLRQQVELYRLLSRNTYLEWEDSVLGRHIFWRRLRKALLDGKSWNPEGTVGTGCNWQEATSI

[3] = Inhibition of TLR4 to MD2 (unknown origin) protein-protein interaction; design: species or system Homo sapiens
[4] = test system: Mus musculus; assay: Antiinflammatory activity in LPS-induced C57BL/6 mouse sepsis model assessed as survival rate at 10 mg/kg, ip preadministered with compound for 1 hr followed by LPS stimulation and measured after 24 hrs; type: functional; settings: time 25 hrs
[5] = Cmax in C57BL/6 mouse at 10 mg/kg, ip measured upto 24 hrs; type: ADME, organism-based; settings: in vivo
[6] = MRT(0 to t) in C57BL/6 mouse at 10 mg/kg, ip measured upto 24 hrs; type: ADME, organism-based; settings: in vivo
[7] = Apparent volume of distribution in C57BL/6 mouse at 10 mg/kg, ip measured upto 24 hrs; type: ADME, organism-based; settings: in vivo
[8] = AUC(0 to t) in C57BL/6 mouse at 10 mg/kg, ip measured upto 24 hrs; type: ADME, organism-based; settings: in vivo
[9] = Tmax in C57BL/6 mouse at 10 mg/kg, ip measured upto 24 hrs; type: ADME, organism-based; settings: in vivo
[10] = Clearance in C57BL/6 mouse at 10 mg/kg, ip measured upto 24 hrs; type: ADME, organism-based; settings: in vivo
[11] = Half-life in C57BL/6 mouse at 10 mg/kg, ip measured upto 24 hrs; type: ADME, organism-based; settings: in vivo
[12] = test system: Mus musculus; assay: Antiinflammatory activity in LPS-induced C57BL/6 mouse sepsis model assessed as reduction in TNFalpha mRNA expression at 5 mg/kg, ip preadministered with compound for 1 hr followed by LPS stimulation and measured after 15 hrs by RT-qPCR analysis; type: functional, organism-based; settings: time 16.0 hrs
[13] = target: T1, Toll-like receptor 4; assay: Inhibition of TLR4 (unknown origin) homodimerization

SMILES | IC50 at 24 h [1] | IC50 [2] | other results
CC(=O)N1CCN(C(=O)c2cnn3c(C(F)F)cc(-c4ccc(Cl)cc4)nc23)CC1 | > 50 µM | > 50 µM | –
O=C(c1cnn2c(C(F)(F)F)cc(-c3ccc(Cl)cc3)nc12)N1CCC2(CC1)OCCO2 | > 50 µM | > 50 µM | –
CCOc1ccc(OCC(O)CN(C)Cc2c(C)nn(Cc3ccccc3Cl)c2C)cc1 (stereo not drawn) | – | – | IC50 [3]: 48.1 µM
O=C(Nc1ccc(S(=O)(=O)NC2CC2)cc1)c1cnn2c(C(F)F)cc(-c3ccc(Cl)cc3)nc12 | > 50 µM | 10.5 µM | –
O=C(c1cnn2c(C(F)F)cc(-c3ccc(Cl)cc3)nc12)N1C[C@H]2CCCC[C@H]2C1 | – | – | survival at 10 mg/kg [4]: 60%; Cmax [5]: 760 ng/mL; MRT last at 24 h [6]: 2.55 h; Vz [7]: 25.4 L/kg; AUCt [8]: 1560 ng·h/mL; Tmax [9]: 0.333 h; CL [10]: 107 mL/min/kg; t1/2 [11]: 2.74 h
NC1CCN(C(=O)c2cnn3c(C(F)F)cc(-c4ccc(Cl)cc4)nc23)CC1 | > 50 µM | > 50 µM | –
C[C@@H]1C[C@H]2[C@@H]3CCC4=CC(=O)C=C[C@]4(C)[C@@]3(F)[C@@H](O)C[C@]2(C)[C@@]1(O)C(=O)CO | – | – | Activity [12]: inactive
COc1ccc(-c2cc(C(F)F)n3ncc(C(=O)N4CCC5(CC4)OCCO5)c3n2)cc1OC | > 50 µM | > 50 µM | –
CN1CCN(C(=O)c2cnn3c(C(F)F)cc(-c4ccc(Cl)cc4)nc23)CC1 | > 50 µM | 30.6 µM | –
O=C(c1cnn2c1NC(c1ccc(Cl)cc1)CC2C(F)F)N1C[C@H]2CCCC[C@H]2C1 (stereo partly drawn) | > 50 µM | > 50 µM | –
Cc1nn(Cc2ccccc2Cl)c(C)c1CN(C)CC(O)COc1ccc(Cl)cc1 (stereo not drawn) | – | – | IC50 [3]: 18.7 µM
O=C(c1cnn2c(C(F)F)cc(-c3ccc(Br)cc3)nc12)N1CCC2(CC1)OCCO2 | > 50 µM | > 50 µM | –
O=C(Oc1ccnc2c(Br)cccc12)c1cnn2c(C(F)F)cc(-c3ccc(Cl)cc3)nc12 | > 50 µM | 15.5 µM | –
CC(C)(C)OC(=O)N1CCN(C(=O)c2cnn3c(C(F)F)cc(-c4ccc(Cl)cc4)nc23)CC1 | > 50 µM | > 50 µM | –
O=C(c1cnn2c(C(F)F)cc(-c3ccc(Cl)cc3)nc12)N1CCC2(CCCCC2)CC1 | > 50 µM | > 50 µM | –
Cc1ccc(-c2cc(C(F)(F)F)n3ncc(C(=O)N4CCC5(CC4)OCCO5)c3n2)cc1 | > 50 µM | > 50 µM | –
O=C(c1cnn2c(C(F)F)cc(-c3ccc(Cl)cn3)nc12)N1C[C@H]2CCCC[C@H]2C1 | > 50 µM | 11.8 µM | –
O=C(c1cnn2c(C(F)F)cc(C34CC5CC(CC(C5)C3)C4)nc12)N1C[C@H]2CCCC[C@H]2C1 | > 50 µM | > 50 µM | –
O=C(c1cnn2c(O)cc(-c3ccc(Cl)cc3)nc12)N1CCC2(CC1)OCCO2 | > 50 µM | > 50 µM | –
O=C(c1cnn2c(C(F)F)cc(-c3ccc(F)cc3)nc12)N1CCC2(CC1)OCCO2 | > 50 µM | > 50 µM | –
CC(C)(C)OC(=O)NC1CCN(C(=O)c2cnn3c(C(F)F)cc(-c4ccc(Cl)cc4)nc23)CC1 | 45.9 µM | 24 µM | –
Cc1ccc(-c2cc(C(F)F)n3ncc(C(=O)N4CCC5(CC4)OCCO5)c3n2)cc1 | > 50 µM | 14 µM | IC50 [13]: 14 µM
FC(F)c1cc(-c2ccc(Cl)cc2)nc2c(C(=S)N3C[C@H]4CCCC[C@H]4C3)cnn12 | > 50 µM | > 50 µM | –
FC(F)c1cc(-c2ccc(Cl)cc2)nc2cc(C(=S)N3C[C@H]4CCCC[C@H]4C3)nn12 | > 50 µM | > 50 µM | –
CCOC(=O)C1=CCCC[C@H]1S(=O)(=O)Nc1ccc(F)cc1Cl [RESATORVID] | > 50 µM | 0.047 µM and 0.06 µM | –
O=C(c1cnn2c(C(F)F)cc(-c3ccc(Cl)cc3)nc12)N1CCC2(CC1)OCCO2 | > 50 µM | 4.94 µM | –
O=C(c1cnn2c(C(F)F)cc(-c3ccc(Cl)cc3)nc12)N1CCSCC1 | > 50 µM | > 50 µM | –

Reference: ChEMBL document CHEMBL6092176, “Discovery of pyrazolo[1,5-a]pyrimidine derivatives targeting TLR4-TLR4∗ homodimerization via AI-powered next-generation screening” (Eur J Med Chem, 2024)
